These are literature values, as cited in patent publication US6667342B1, “Benzenesulfonamide-derivatives and their use as medicaments” (Astrazeneca AB, priority 1998, dated 2003).

Take `O=C(O)C(Cl)Cl` [DCA, dichloroacetic acid]: the glycaemia result (Stacpoole et al. 1978) is reported as “reducing glycaemia”. Also, under “after repeated administration (Evans and Stacpoole 1982)”, the plasma glucose entry is given as “significant decrease”. For the same compound, the “activity of PDH” value in the data set with PDH (after acute administration in animals (Vary et al. 1988)) was “increases”. Besides, in the data set with PDH (single administration, 150 mg/kg, intraperitoneally (Vary et al. 1988)), the “proportion of PDH in its active form” value is given as “increased”.
